From ChEMBL document CHEMBL1201862, “PubChem BioAssay data set” (2004)
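Step 1: Grow cells in 96-well plates. Step 2: Expose to compound for 48 hours at 5 concentrations. Step 3: Interpolate endpoints linearly; if unreached, use highest concentration. Abbreviation: GI50, concentration required for 50% inhibition of growth.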 The source made the active and inactive calls. Cut-off read from the data, not from the text of the source: active = GI50 up to about 1.1 µM and inactive = higher.

Key:
Assay in all cases: inhibition of tumour cell growth, NCI panel, 48 h
RXF 393 = test system: RXF 393
EKVX = test system: EKVX
U-251 = test system: U-251
HOP-92 = test system: HOP-92
M14 = test system: M14
UACC-257 = test system: UACC-257
NCI-H460 = test system: NCI-H460
SK-OV-3 = test system: SK-OV-3
SF-295 = test system: SF-295
TK-10 = test system: TK-10
NCI-H226 = test system: NCI-H226
DMS-114 = test system: DMS-114
A498 = test system: A498
SK-MEL-28 = test system: SK-MEL-28
UO-31 = test system: UO-31
HOP-62 = test system: HOP-62
HL-60 = test system: HL-60
A549 = test system: A549
HCT-116 = test system: HCT-116
HT-29 = test system: HT-29
NCI-H23 = test system: NCI-H23
MOLT-4 = test system: MOLT-4
SNB-78 = test system: SNB-78
OVCAR-5 = test system: OVCAR-5
NCI-H522 = test system: NCI-H522
ACHN = test system: ACHN
OVCAR-8 = test system: OVCAR-8
IGROV-1 = test system: IGROV-1
CCRF-CEM = test system: CCRF-CEM
DMS-273 = test system: DMS-273
SR = test system: SR
KM12 = test system: KM12
SNB-19 = test system: SNB-19
SW-620 = test system: SW-620
CAKI-1 = test system: CAKI-1
LOX IMVI = test system: LOX IMVI
SK-MEL-2 = test system: SK-MEL-2
HCC 2998 = test system: HCC 2998
KM-20L2 = test system: KM-20L2
Malme-3M = test system: Malme-3M
K562 = test system: K562
SF-268 = test system: SF-268
NCI/ADR-RES = test system: NCI/ADR-RES
MCF7 = test system: MCF7
DLD-1 = test system: DLD-1
HOP-18 = test system: HOP-18
M19-MEL = test system: M19-MEL
COLO 205 = test system: COLO 205
SK-MEL-5 = test system: SK-MEL-5
OVCAR-3 = test system: OVCAR-3
UACC-62 = test system: UACC-62
HCT-15 = test system: HCT-15
SF-539 = test system: SF-539
SN12C = test system: SN12C
RPMI-8226 = test system: RPMI-8226
SNB-75 = test system: SNB-75
OVCAR-4 = test system: OVCAR-4
LXFL 529 = test system: LXFL 529
786-0 = test system: 786-0
T47D = test system: T47D
DU-145 = test system: DU-145
MDA-MB-231 = test system: MDA-MB-231
MDA-MB-435 = test system: MDA-MB-435
PC-3 = test system: PC-3
BT-549 = test system: BT-549
Hs-578T = test system: Hs-578T
MDA-N = test system: MDA-N

Measured: GI50

CCN(CC)CSc1nc2ccccc2[nH]1
inactive: RXF 393 > 100 µM | EKVX > 100 µM | U-251 > 100 µM | HOP-92 > 100 µM | M14 > 100 µM | UACC-257 > 100 µM | NCI-H460 > 100 µM | SK-OV-3 > 100 µM | SF-295 > 100 µM | TK-10 > 100 µM | NCI-H226 > 100 µM | DMS-114 > 100 µM | A498 > 100 µM | SK-MEL-28 > 100 µM | UO-31 > 100 µM | HOP-62 > 100 µM | HL-60 > 100 µM | A549 > 100 µM | HCT-116 > 100 µM | HT-29 > 100 µM | NCI-H23 > 100 µM | MOLT-4 > 100 µM | SNB-78 > 100 µM | OVCAR-5 > 100 µM | NCI-H522 > 100 µM | ACHN > 100 µM | OVCAR-8 > 100 µM | IGROV-1 > 100 µM | CCRF-CEM > 100 µM | DMS-273 > 100 µM | SR > 100 µM | KM12 > 100 µM | SNB-19 > 100 µM

COc1cc2c(cc1OC)-c1c3c(cc4c1[C@@H](C2)N(C)CC4)OCO3
5.77 µM: HCT-15
inactive: SW-620 3.92 µM | RXF 393 8.04 µM | CAKI-1 6.01 µM | LOX IMVI 3.78 µM | SK-MEL-2 10.9 µM | HCC 2998 9.35 µM | EKVX 11.4 µM | U-251 10.8 µM | HOP-92 6.78 µM | KM-20L2 3.44 µM | UACC-257 11.6 µM | NCI-H460 2.53 µM | Malme-3M 9.14 µM | SK-OV-3 12.1 µM | K562 5.36 µM | SF-295 1.64 µM | SF-268 7.69 µM | NCI/ADR-RES 5.62 µM | NCI-H226 7.06 µM | MCF7 1.94 µM | DMS-114 8.43 µM | DLD-1 6 µM | A498 4.69 µM | SK-MEL-28 12.2 µM | HOP-18 18.2 µM | UO-31 11.8 µM | HOP-62 3.57 µM | M19-MEL 10.4 µM | COLO 205 4.23 µM | HL-60 7.26 µM | A549 3.34 µM | HCT-116 2.87 µM | SK-MEL-5 7.52 µM | OVCAR-3 13.6 µM | HT-29 6.4 µM | NCI-H23 10.2 µM | MOLT-4 3.85 µM | SNB-78 11.6 µM | OVCAR-5 9.64 µM | NCI-H522 6.7 µM | UACC-62 8.38 µM | OVCAR-8 4.59 µM | IGROV-1 9.62 µM | SF-539 5.94 µM | CCRF-CEM 3.96 µM | SN12C 6.14 µM | RPMI-8226 5.74 µM | SNB-75 7.29 µM | OVCAR-4 8.26 µM | DMS-273 3.52 µM | KM12 7.4 µM | SNB-19 5.74 µM

C=C1C(=O)OC2C1CC[C@H](C)C1(O)C(O)CC(=O)[C@@]21C (some centres not stated)
inactive: SW-620 20.6 µM | RXF 393 > 10 µM | CAKI-1 27.7 µM | SK-MEL-2 27.2 µM | HCC 2998 24 µM | EKVX 19.5 µM | U-251 49.8 µM | HOP-92 27.7 µM | UACC-257 14.4 µM | NCI-H460 36.5 µM | Malme-3M 17.3 µM | SK-OV-3 24.9 µM | K562 14.3 µM | SF-295 24.8 µM | SF-268 23.3 µM | LXFL 529 > 10 µM | TK-10 > 10 µM | NCI-H226 21.7 µM | DMS-114 16.7 µM | DLD-1 18.7 µM | A498 10 µM | SK-MEL-28 13.6 µM | UO-31 28.6 µM | M19-MEL 12.3 µM | COLO 205 16.3 µM | HL-60 17 µM | A549 31 µM | HCT-116 15 µM | SK-MEL-5 16.7 µM | OVCAR-3 21.2 µM | HT-29 20.4 µM | 786-0 24.2 µM | NCI-H23 18.7 µM | MOLT-4 14.4 µM | SNB-78 26.7 µM | OVCAR-5 21 µM | ACHN 19.5 µM | UACC-62 12.7 µM | OVCAR-8 17.4 µM | IGROV-1 28.8 µM | SF-539 19 µM | CCRF-CEM > 10 µM | SN12C 22 µM | RPMI-8226 22.1 µM | SNB-75 24.7 µM | DMS-273 22.3 µM | SR 17.1 µM | KM12 17.3 µM | SNB-19 52 µM

COc1cc([C@@H]2c3cc4c(cc3[C@@H](NCCCN(C)C)[C@H]3COC(=O)[C@H]23)OCO4)cc(OC)c1O
active: SW-620 0.346 µM | LOX IMVI 0.181 µM | HCC 2998 0.838 µM | EKVX 0.745 µM | U-251 0.242 µM | KM-20L2 0.716 µM | NCI-H460 0.0232 µM | Malme-3M 0.379 µM | SK-OV-3 0.137 µM | SF-295 0.0995 µM | UO-31 0.423 µM | M19-MEL 0.53 µM | HL-60 0.0582 µM | A549 0.142 µM | HCT-116 0.658 µM | SK-MEL-5 0.212 µM | OVCAR-3 0.849 µM | HT-29 0.916 µM | MOLT-4 0.0222 µM | NCI-H522 0.637 µM | ACHN 0.076 µM | IGROV-1 0.653 µM | SF-539 0.376 µM | CCRF-CEM 0.098 µM | RPMI-8226 0.525 µM | DMS-273 0.164 µM | KM12 0.769 µM | SNB-19 0.22 µM
inactive: OVCAR-5 1.15 µM
0.513 µM: HCT-15

O=c1c(Sc2ncccn2)c(Sc2ncccn2)cnn1CCl
active: TK-10 0.398 µM | NCI-H522 0.665 µM | CCRF-CEM 0.295 µM
inactive: SW-620 2.4 µM | RXF 393 1.5 µM | CAKI-1 1.98 µM | T47D 3.23 µM | LOX IMVI 2.01 µM | SK-MEL-2 2.22 µM | HCC 2998 10.8 µM | EKVX 2.9 µM | U-251 7.08 µM | HOP-92 2.59 µM | M14 2.12 µM | UACC-257 2.17 µM | NCI-H460 14.7 µM | Malme-3M 2.05 µM | DU-145 2.64 µM | MDA-MB-231 6.98 µM | SK-OV-3 11.1 µM | K562 3.39 µM | SF-295 15.3 µM | SF-268 2.99 µM | NCI/ADR-RES 4.97 µM | NCI-H226 28.1 µM | MCF7 2.88 µM | MDA-MB-435 1.77 µM | PC-3 2.48 µM | A498 19.1 µM | SK-MEL-28 3.41 µM | UO-31 1.7 µM | HOP-62 1.49 µM | COLO 205 1.76 µM | HL-60 2.04 µM | BT-549 10.2 µM | Hs-578T 14.5 µM | A549 16.4 µM | HCT-116 1.85 µM | SK-MEL-5 6.87 µM | OVCAR-3 2.02 µM | HT-29 1.98 µM | 786-0 1.87 µM | NCI-H23 4.67 µM | MOLT-4 2.72 µM | OVCAR-5 7.21 µM | MDA-N 2.17 µM | ACHN 2.21 µM | UACC-62 5.75 µM | OVCAR-8 2.08 µM | IGROV-1 1.17 µM | SF-539 1.52 µM | SN12C 3.79 µM | RPMI-8226 1.67 µM | SNB-75 16.4 µM | OVCAR-4 2.15 µM | SR 2.79 µM | KM12 14.7 µM | SNB-19 17 µM
3.02 µM: HCT-15

O=C(O)/C=C/c1c[nH]c(=O)[nH]c1=O
> 250 µM: HCT-15
inactive: SW-620 > 250 µM | LOX IMVI > 250 µM | SK-MEL-2 > 250 µM | HCC 2998 > 250 µM | EKVX > 250 µM | U-251 > 250 µM | UACC-257 > 250 µM | NCI-H460 > 250 µM | Malme-3M > 250 µM | SF-295 129 µM | SF-268 > 250 µM | NCI/ADR-RES > 250 µM | NCI-H226 > 250 µM | DLD-1 > 250 µM | SK-MEL-28 > 250 µM | UO-31 > 250 µM | COLO 205 > 250 µM | HL-60 237 µM | HCT-116 > 250 µM | SK-MEL-5 > 250 µM | OVCAR-3 > 250 µM | MOLT-4 > 250 µM | SNB-78 > 250 µM | NCI-H522 > 250 µM | UACC-62 > 250 µM | OVCAR-8 > 250 µM | IGROV-1 > 250 µM | SF-539 > 250 µM | CCRF-CEM > 250 µM | RPMI-8226 > 250 µM | KM12 > 250 µM | SNB-19 > 250 µM
